Results: patent US20260092061A1, “COMPOUNDS FOR TARGETED PROTEIN DEGRADATION” (Amphista Therapeutics Limited, priority 2022, published 2026)
Read-outs that look alike come from different tables or passages of the source.

Molecular target: T1, BRD9 (Homo sapiens, UniProt Q9H8M2)
T1 sequence (Q9H8M2 1-597): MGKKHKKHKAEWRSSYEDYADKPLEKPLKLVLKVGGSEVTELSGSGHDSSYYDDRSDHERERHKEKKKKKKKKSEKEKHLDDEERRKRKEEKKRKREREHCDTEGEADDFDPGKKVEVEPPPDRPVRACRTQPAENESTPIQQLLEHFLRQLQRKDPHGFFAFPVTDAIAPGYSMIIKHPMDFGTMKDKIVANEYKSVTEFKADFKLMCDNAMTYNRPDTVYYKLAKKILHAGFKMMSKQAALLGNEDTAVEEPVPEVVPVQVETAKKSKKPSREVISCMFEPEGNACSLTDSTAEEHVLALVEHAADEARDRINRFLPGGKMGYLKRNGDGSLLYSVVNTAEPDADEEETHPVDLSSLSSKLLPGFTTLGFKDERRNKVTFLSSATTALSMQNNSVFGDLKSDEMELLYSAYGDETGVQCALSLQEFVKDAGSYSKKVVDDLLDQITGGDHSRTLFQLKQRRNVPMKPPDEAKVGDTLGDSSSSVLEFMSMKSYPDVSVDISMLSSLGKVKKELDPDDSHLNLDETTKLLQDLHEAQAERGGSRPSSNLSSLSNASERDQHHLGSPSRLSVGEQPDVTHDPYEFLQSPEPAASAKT
Assay: Degradation of BRD9 (IF), immunofluorescence in MV4-11 cells, 24 hours (Assay Protocol 2)
Type: cell-based
Set-up: A suspension of MV4-11 cells (ATCC CRL-9591) was prepared; host or cells: MV4-11
Conditions: BRD9 degradation
Outline: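 MV4-11 cells treated with compound 24 h at 37° C., then fixed, permeabilised and immunostained for BRD9 (anti-BRD9 E4Q3F, Alexa 647 secondary, Hoechst counterstain). High-content imaging quantified nuclear BRD9 signal; % BRD9 remaining normalised to DMSO and 100 nM CFT-8634 controls.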

[1] = MV4-11, Table 4, determined according to Assay Protocol 2, read-out: Dmax^2
[2] = Table 4, determined according to Assay Protocol 2, read-out: DC50^2
[3] = Assay protocol 2, read-out: DC50
[4] = MV4-11, Assay protocol 2, read-out: Dmax

Row | Structure (SMILES) | Dmax [1] [%] | DC50 [2] [nM] | DC50 [3] [nM] | Dmax [4] [%]
1 | COc1cc(-c2cn(C)c(=O)c(C)c2C)cc(OC)c1CN1CCC2(CC1)CCN(C(=O)/C(C#N)=C/c1cccc(Br)n1)CC2 [BRD9r, (E/Z)-3-(6-bromopyridin-2-yl)-2-(9-(2,6-dimethoxy-4-(1,4,5-trimethyl-6-oxo-1,6-dihydropyridin-3-yl)benzyl)-3,9-diazaspiro[5.5]undecane-3-carbonyl)acrylonitrile] | > 70 | > 200 | – | –
2 | COc1cc(-c2cn(C)c(=O)c(C)c2C)cc(OC)c1C(=O)N1CCN(C(=O)/C(C#N)=C/C(C)(C)C)CC1 [BRD9s, (E/Z)-2-(4-(2,6-dimethoxy-4-(1,4,5-trimethyl-6-oxo-1,6-dihydropyridin-3-yl)benzoyl)piperazine-1-carbonyl)-4,4-dimethylpent-2-enenitrile] | 50 to 70 | < 25 | – | –
3 | COc1cc(-c2cn(C)c(=O)c(C)c2C)cc(OC)c1C(=O)N1CCCN(C(=O)/C(C#N)=C/C(C)(C)C)CC1 [BRD9v, (E/Z)-2-(4-(2,6-dimethoxy-4-(1,4,5-trimethyl-6-oxo-1,6-dihydropyridin-3-yl)benzoyl)-1,4-diazepane-1-carbonyl)-4,4-dimethylpent-2-enenitrile] | 50 to 70 | < 25 | – | –
4 | COc1cc(-c2cn(C)c(=O)c(C)c2C)cc(OC)c1CN(C)C1CCN(C(=O)/C(C#N)=C/c2cccc(Br)n2)CC1 [BRD9z, (E/Z)-3-(6-bromopyridin-2-yl)-2-(4-((2,6-dimethoxy-4-(1,4,5-trimethyl-6-oxo-1,6-dihydropyridin-3-yl)benzyl)(methyl)amino)piperidine-1-carbonyl)acrylonitrile] | > 70 | > 200 | – | –
5 | COc1cc(-c2cn(C)c(=O)c(C)c2C)cc(OC)c1CN1CCC2(CC1)CCN(c1cccc3c1CCN(C(=O)/C(C#N)=C/C(C)(C)C)C3C)C2 (stereo not drawn) [Compound B63, (E2Z)-2-(5-(8-(2,6-dimethoxy-4-(1,4,5-trimethyl-6-oxo-1,6-dihydropyridin-3-yl)benzyl)-2,8-diazaspiro[4.5]decan-2-yl)-1-methyl-1,2,3,4-tetrahydroisoquinoline-2-carbonyl)-4,4-dimethylpent-2-enenitrile] | – | – | 1.25 to 10 | 40 to 70
6 | COc1cc(-c2cn(C)c(=O)c(C)c2C)cc(OC)c1CN1CCN(C(=O)[C@H]2CN(C(=O)/C(C#N)=C/C(C)(C)C)C[C@@H]2C)CC1 [Compound B214] | 50 to 70 | > 200 | – | –
7 | COc1cc(-c2cn(C)c(=O)c3[nH]ncc23)cc(OC)c1CN1CCN(C(=O)/C(C#N)=C/C(C)(C)C)CC1 [Compound B215, (E/Z)-2-(4-(2,6-dimethoxy-4-(6-methyl-7-oxo-6,7-dihydro-1H-pyrazolo[3,4-c]pyridin-4-yl)benzyl)piperazine-1-carbonyl)-4,4-dimethylpent-2-enenitrile] | – | – | 25 to 1000 | 40 to 70
8 | COc1cc(-c2cn(C)c(=O)c(C)c2C)cc(OC)c1CN1CCN(Cc2ccc3c(c2)CN(C(=O)/C(C#N)=C/C(C)(C)C)CC3)C2(CC2)C1 [Compound C1, (E/Z)-2-(7-((7-(2,6-dimethoxy-4-(1,4,5-trimethyl-6-oxo-1,6-dihydropyridin-3-yl)benzyl)-4,7-diazaspiro[2.5]octan-4-yl)methyl)-1,2,3,4-tetrahydroisoquinoline-2-carbonyl)-4,4-dimethylpent-2-enenitrile] | – | – | < 1.25 | > 75
9 | COc1cc(-c2cn(C)c(=O)c(C)c2C)cc(OC)c1CN1CCN(Cc2cccc3c2CCN(C(=O)/C(C#N)=C/C(C)(C)C)C3)C2(CC2)C1 [Compound C2, (E/Z)-2-(5-((7-(2,6-dimethoxy-4-(1,4,5-trimethyl-6-oxo-1,6-dihydropyridin-3-yl)benzyl)-4,7-diazaspiro[2.5]octan-4-yl)methyl)-1,2,3,4-tetrahydroisoquinoline-2-carbonyl)-4,4-dimethylpent-2-enenitrile] | – | – | 1.25 to 10 | > 75
10 | COc1cc(-c2cn(C)c(=O)c(C)c2C)cc(OC)c1CN1CCC2(CCN(c3cccc4c3CCN(C(=O)/C(C#N)=C/C(C)(C)C)C4C)C2)C1 (stereo not drawn) [Compound C42, (E2Z)-2-(5-(7-(2,6-dimethoxy-4-(1,4,5-trimethyl-6-oxo-1,6-dihydropyridin-3-yl)benzyl)-2,7-diazaspiro[4.4]nonan-2-yl)-1-methyl-1,2,3,4-tetrahydroisoquinolin-2-carbonyl)-4,4-dimethylpent-2-enenitrile] | – | – | 1.25 to 10 | 40 to 70
11 | COc1cc(-c2cn(C)c(=O)c(C)c2C)cc(OC)c1CN1CCC(CN(C)c2ccc3c(c2)C(C)N(C(=O)/C(C#N)=C/C(C)(C)C)CC3)CC1 (stereo not drawn) [Compound C46] | – | – | 1.25 to 10 | 40 to 70
12 | COc1cc(-c2cn(C)c(=O)c(C)c2C)cc(OC)c1CN1CCC2(CC1)CCN(c1cccc3c1CCN(C(=O)/C(C#N)=C/C(C)(C)C)[C@@H]3C)C2 [Compound C47] | – | – | 1.25 to 10 | > 75
13 | COc1cc(-c2cn(C)c(=O)c(C)c2C)cc(OC)c1CN1CC(Cc2cccc3c2CCN(C(=O)/C(C#N)=C/C(C)(C)C)C3C)C1 (stereo not drawn) [Compound C49] | – | – | – | 40 to 70
14 | COc1cc(-c2cn(C)c(=O)c(C)c2C)ccc1OC1CCC(Cc2cccc3c2CCN(C(=O)/C(C#N)=C/C(C)(C)N2CCN(C)CC2)C3C)CC1 (stereo not drawn) [Compound C50] | – | – | 25 to 1000 | 70 to 75
15 | COc1cc(-c2cn(C)c(=O)c(C)c2C)ccc1OC1CCC(Cc2cccc3c2CCN(C(=O)/C(C#N)=C/C(C)(C)N2CCN(C4COC4)CC2)C3C)CC1 (stereo not drawn) [Compound C51] | – | – | 25 to 1000 | 40 to 70
16 | COc1cc(-c2cn(C)c(=O)c(C)c2C)cc(OC)c1CN1CCC(Cc2ccc3c(c2)C(C)N(C(=O)/C(C#N)=C/C(C)(C)C)CC3)CC1(C)C (stereo not drawn) [Compound C53] | – | – | 25 to 1000 | 40 to 70
17 | COc1cc(-c2cn(C)c(=O)c(C)c2C)cc(OC)c1CN1CCC2(CCN(c3ccc4c(c3)[C@H](C)N(C(=O)/C(C#N)=C/C(C)(C)C)CC4)CC2)C1 [Compound C54] | – | – | 25 to 1000 | 40 to 70
18 | COc1cc(-c2cn(C)c(=O)c(C)c2C)cc(OC)c1CN1CC(=O)N(Cc2cccc3c2CCN(C(=O)/C(C#N)=C/C(C)(C)C)C3C)C(C)(C)C1 (stereo not drawn) [Compound C55] | – | – | 25 to 1000 | > 75
19 | COc1cc(-c2cn(C)c(=O)c(C)c2C)ccc1O[C@H]1CC[C@@H](Nc2cccc3c2CCN(C(=O)/C(C#N)=C/C(C)(C)C)C3C)CC1 (stereo partly drawn) [Compound C56] | – | – | 25 to 1000 | > 75
20 | COc1cc(-c2cn(C)c(=O)c(C)c2C)ccc1OC1CCN(Cc2cccc3c2CCN(C(=O)/C(C#N)=C\C(C)(C)C)C3C)C(C)(C)C1 (stereo not drawn) [Compound C58] | – | – | 10 to 25 | > 75
21 | COc1cc(-c2cn(C)c(=O)c(C)c2C)cc(OC)c1CN1CCC(COc2ccc3c(c2)[C@H](C)N(C(=O)/C(C#N)=C/C(C)(C)C)CC3)CC1 [Compound C61] | – | – | < 1.25 | > 75
22 | COc1cc(-c2cn(C)c(=O)c(C)c2C)cc(OC)c1CN1CCC(Cc2cccc3c2CCN(C(=O)/C(C#N)=C/C(C)(C)C)C3C)C(C)(C)C1 (stereo not drawn) [Compound C62] | – | – | 10 to 25 | > 75
23 | COc1cc(-c2cn(C)c(=O)c(C)c2C)ccc1OC1CCC(Cc2cccc3c2CCN(C(=O)/C(C#N)=C/C(C)(C)N2CCN(C)CC2)C3C(C)C)CC1 (stereo not drawn) [Compound C85] | – | – | 25 to 1000 | > 75
